Measured values as given in patent US20050222274A1 (priority 2002, published 2005).

Legend:
[1] = tested on: release of APPs produced by α-secretase; assay: release of APPs in the culture medium of neuroblastoma cell line SH-SY5Y; type: cell-based; conditions: 10 μM; APPs secreted in culture medium of SH-SY5Y; controls = 100
Method: It is in fact known that proteolytic cleavage of Alzheimer Precursor Protein (APP) is mediated both by β- and γ-secretase, inducing an increased production of amyloid peptide Ab1-42 (which also plays a central role in the appearance of Alzheimer's disease), and […], giving raise to soluble APPs which have no pathogenic activity (Eslr W. P., Wolfe M. S., Science, 293, 1449-54, 2001).
The effect of the compounds of the invention on the release of APPs produced by α-secretase was evaluated in the culture medium of a neuroblastoma cell line (SH-SY5Y) according to the procedure described by Galbete J. L. et al. in Biochem J. 348, 307-313, 2000.

[2] = usual extraction and storage conditions; cited from earlier work

Molecule: 8-chlorooctahydrohyperforin
- APPs % [1]: 855%

Molecule: CC(C)=CCC[C@]1(C)[C@@H](CC=C(C)C)C[C@@]2(CC=C(C)C)C(=O)[C@]1(C(=O)C(C)C)C(=O)C(CC=C(C)C)=C2O [Hyperforin]
- APPs % [1]: 296%
- stability (in words) [2]: poorly stable

Molecule: CC(C)=CCC[C@]1(C)[C@@H](CC=C(C)C)C[C@]2(CC=C(C)C)C(=O)C(Cl)(CC=C(C)C)C(=O)[C@@]1(C(=O)C(C)C)C2=O (stereo partly shown) [Chlorohyperforin, 8-chlorohyperforin]
- APPs % [1]: 627%
